Measured values as given in patent US20110166105A1, “ANTIMICROBIAL WASH AND CARRIER SOLUTIONS AND USES THEREOF” (TEVA ANIMAL HEALTH, INC., priority 2002, published 2011).

Test: Antimicrobial preservative effectiveness (APE), USP 25 test 51
Format: cell-based
Details: pH 8.5
Protocol: Various concentrations of benzyl alcohol were tested for antimicrobial preservative effectiveness (APE) using the USP 25 test 51 (U.S. Pharmacopeia 25, U.S. Pharmacopeia, MD (2001)). The formulations below are based on the formulation designated as 940-16 C (with a slightly higher pH) in Example 2 above with varying benzyl alcohol concentrations. The table below summarizes the results of these studies. Antimicrobial activity can be measured by any standard assay known to those of skill in the art (e.g., USP 25 antimicrobial preservative effectiveness (APE) test 51 (U.S. Pharmacopeia 25, U.S. Pharmacopeia, MD (2001)).

In the case of `OCc1ccccc1` [benzyl alcohol], the “USP antimicrobial preservative requirement” value is reported as “meets the USP antimicrobial preservative requirement”.
